pIC50: −log10 of the molar value.
Assays:
[1] = system: focal cerebral ischemia (permanent MCA occlusion); test: Rat stroke model, permanent MCA occlusion; type: in vivo, Male Wistar rats
[2] = system: hippocampal neurons from Fmr1 KO mice; test: Dendritic spine development in hippocampal primary cultures; type: cell-based, mouse; conditions: FX hippocampal primary cultures, 20 μM, 17 hour treatment, 18 DIV
Method: The purpose of this study was to investigate the direct effects of tetracycline compounds, such as minocycline and Compound 1, on dendritic spine development in the cell derived from the mouse model of Fragile X Syndrome (FXS) and their wild-type litter mate control mouse embryos.
The compartmentalized cell culture was used in the experiments. Neuronal primary cultures of the hippocampus at embryonic day 16 (E16) were prepared from Fmr1 KO and WT litter mate control mouse embryos, and three independent cultures were used for the analysis. The in vitro system with […] was used to monitor dendritic spine morphogenesis during a time-course of culture, and immunostaining with synaptophysin was used to distinguish presynaptic boutons. The dendritic spines were usually formed between 7 and 14 days in vitro (DIV). By 14 DIV most dendiritic protrusions were spines; however, their maturation continued until 21 DIV. The effects of tetracycline compounds were evaluated at 18 DIV. Confocal Imagining analysis was performed at the University of Chile imaging center. Quantitative analysis of dentritic spine length, size distribution for dendritic spine heads and morphology of the hippocampal neurons from WT control and Fmr1 KO mice was performed after 17 hour treatment with 20 μM tetracycline compounds or with PBS control.

[3] = Peroxynitrite-carbonate radical scavenging assay (DHR probe)
Method: Inflammatory conditions are characterized by increasing concentrations of reactive oxygen species. In this study, the ability of Compound 1 to specifically scavenge peroxynitrite-carbonate radicals was determined.
To the first column of a 96-well PCR plate (0.2 mL volume) was added 160 μL of TCWS. One well of the first column would equal one IC50 determination. Typically, test compounds were assayed in duplicate, i.e. two wells of column 1 were filled with each TCWS. To the remaining wells in columns 2-11 was added 80 μL of DWS. Using a multichannel pipettor, column 1 was serially diluted in 2-fold dilutions by removing 80 μL from column 1 and transferring with mixing to column 2. Column 2 was then diluted to column 3 and so on until column 11 where 80 μL of the diluted mixture was removed and discarded. At least 2 wells of row 12 were designated as the 0 test compound control to which 80 μL of DWS was added. One well of row 12 per test compound was designated as the background control to which 80 μL of the TCWS was added.
The plate was covered and incubated for 5 minutes at 37° C. upon which the reaction was initiated by addition of 20 μL of Sin-1 to columns 1-11 using a multichannel pipettor with mixing. The reaction was initiated similarly to the 0 test compound wells of column 12. To the background control wells was added 20 μL of PC buffer. The plate was incubated at 37° C. for 8 minutes (the reaction is linear for 10 minutes) and quenched by addition of 50 μL of AA to all wells with mixing. The plate was placed on ice for 5 minutes. Quenched assay mixtures were stable at room temperature for at least 24 hours.
Each reaction mixture (20 μL) was analyzed for rhodamine 123 product by HPLC using a Phenomenex Luna C18(2) column, 3 um, 4.6×50 mm using an A buffer of water+0.1% TFA and a B buffer of acetonitrile+0.1% TFA and the following gradient method: […]
The absorbance at 280 nm was also recorded to ensure no co-elution of test compound peaks.
Initial examination of the background control samples at the highest test compound concentration were performed to ensure no co-elution of test compound peaks with the product rhodamine 123 at 4 minutes. If co-elution was observed, the compound was not tested until an appropriate HPLC method was developed to separate the product and test compound peaks. The rhodamine 123 AUC was then determined for each test compound concentration and the percent inhibition of rhodamine 123 fluorescence was then determined by the following equation:
% Inhibition=[(AUCo−AUCx)/AUCo]*100
Where AUCo is the AUC of the rhodamine 123 peak at 0 test compound concentration and AUCX is the AUC of the rhodamine 123 peak at each test compound concentration=x.
The standard error of the curve fit for the IC50 was also determined along with the Hill slope. The IC50 determined for uric acid was divided by the IC50 determined for each test compound to generate Uric Acid Equivalents, a measure of the peroxynitrite-carbonate radical scavenging ability relative to uric acid.
Uric Acid Equivalents=[…]

[4] = system: Fmr1 KO2 mice; test: Marble burying test, mouse model of Fragile X Syndrome; type: in vivo; conditions: 10 mg/kg/d
Method: (§1) The purpose of this study was to test Compound 1 for treating Fragile X Syndrome. This study utilized Fmr1 KO mice, an animal model of Fragile X Syndrome.
(§2) The Fmr1 KO mice (C57BL/6 background) were kindly provided the FRAXA Foundation. Mice were housed in groups of the same genotype in a temperature and humidity controlled room with a 12-h light-dark cycle (lights on 7 am to 7 pm). Testing was conducted during the light phase. Food and water were available ad libitum. Testing was conducted on Fmr1 KO mice and their wild-type littermates. They were housed in commercial plastic cages purchased in the UK. Experiments were conducted in line with the requirements of the UK Animals (Scientific Procedures) Act, 1986.
(§3) The dosing protocol used is shown below. Mice were dosed at 6-7 weeks by intraperitoneal (i.p.) infusion by osmotic pump (0.5 μl/hour) for 1 week. The solution of 0.9% saline was used as a vehicle, and 10 mice were dosed per each group.

[5] = Cardiovascular safety study in monkeys; type: in vivo
[6] = system: focal cerebral ischemia (temporary MCA occlusion); test: Rat stroke model, 90 min temporary MCA occlusion; type: in vivo, Male Wistar rats; conditions: for Neurological score / Infarct volume (Means ± SD): temporary; for Infarct volume (Means ± SD): 24 hr after MCAO; for Effect on infarct volume: temporary occlusion
[7] = system: Fmr1 KO2 mice; test: Contextual fear conditioning, mouse model of Fragile X Syndrome; type: in vivo; conditions: acute stress conditions
Method: as §1, §2, §3
Freezing as a species-specific response to fear was measured.

[8] = Preliminary embryofetal DRF study in rats; type: in vivo; conditions: high dose of 250 mg/kg
[9] = 20 mg/kg i.v. at 30 min, 6 hr after MCAO
[10] = 40 mg/kg i.v. at 60 min, 6 hr after MCAO
[11] = 40 mg/kg i.v. at 3 hr, 8 hr after MCAO

SMILES: CCc1cc(N(C)C)c2c(c1O)C(=O)C1=C(O)[C@]3(O)C(=O)C(C(N)=O)=C(O)[C@@H](N(C)C)[C@@H]3C[C@@H]1C2 [Compound 1]
- Neurological score ([1]; 40 mg/kg i.v. at −90 min, 90 min, 6 hr after MCAO, permanent): 1.1 ± 0.3
- Infarct volume (Means ± SD) ([1]; 40 mg/kg i.v. at −90 min, 90 min, 6 hr after MCAO, permanent, 24 hr after MCAO): 145.7 ± 33.9 mm3
- Effect on infarct volume ([1]; permanent occlusion, treatment started at 90 min pre-occlusion): statistically significant reductions in infarct volume
- Spine number [2]: 0.28±0.05
- pIC50 ([3]; Sin-1, 37° C., 8 minutes, read-out: IC50, inhibition of oxidation of DHR probe (peroxynitrite-carbonate scavenging)): 4.96
- Uric Acid Equivalents ([3]; relative to uric acid): 1.13
- Marble burying deficit of Fmr1 KO2 mice [4]: significantly rescued
- Cardiovascular safety findings [5]: No treatment-related effects were observed
- Neurological score [6, 9]: 1.5 ± 0.5
- Infarct volume (Means ± SD) [6, 9]: 139.2 ± 32.2 mm3
- Neurological score [6, 10]: 1.3 ± 0.5
- Infarct volume (Means ± SD) [6, 10]: 125.9 ± 49.9 mm3
- Neurological score [6, 11]: 1.4 ± 0.5
- Infarct volume (Means ± SD) [6, 11]: 172.8 ± 45.3 mm3
- Effect on infarct volume ([6]; treatment initiated three hours post occlusion): did not demonstrate an ability to reduce infarct volume
- Effect on infarct volume ([6]; treatment started at 30 or 60 min after MCA occlusion): statistically significant reductions in infarct volume
- Contextual fear conditioning, learning deficit (freezing) [7]: failed to fully rescue the learning deficit
- Effects on fetal body weight [8]: only slight effects on fetal body weight

— patent US20150174144A1, “TETRACYCLINE COMPOUNDS FOR TREATING NEURODEGENERATIVE DISORDERS” (PARATEK PHARMACEUTICALS, INC., priority 2012, published 2015)
